Structures can show the parent of a compound that is named as a salt.

This assay deals with T1, human LPA1 (Homo sapiens, UniProt Q92633).
T1 construct: expressed in transfected cells; host or cells: Chinese hamster ovary (CHO) cells
T1 sequence (Q92633 whole entry): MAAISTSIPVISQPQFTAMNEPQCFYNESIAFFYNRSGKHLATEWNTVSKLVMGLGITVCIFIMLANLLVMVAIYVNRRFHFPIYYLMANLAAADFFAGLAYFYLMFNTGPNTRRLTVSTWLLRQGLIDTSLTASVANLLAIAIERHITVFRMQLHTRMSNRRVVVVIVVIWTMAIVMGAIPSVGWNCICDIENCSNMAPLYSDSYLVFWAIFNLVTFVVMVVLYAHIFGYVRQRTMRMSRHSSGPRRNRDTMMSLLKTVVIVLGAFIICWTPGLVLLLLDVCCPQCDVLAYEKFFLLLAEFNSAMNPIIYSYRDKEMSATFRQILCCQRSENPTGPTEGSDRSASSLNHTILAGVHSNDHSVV
Put plainly: LPA1 functional antagonist assay (calcium flux). It counts as cell-based. The note with it: CHO cells overexpressing human LPA1; inhibition of calcium flux induced by 10 nM LPA; read-out: hLPA1 IC50. An outline of the steps: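 IC50 values come from 4-parameter logistic fits and mark 50% block of the calcium flux evoked by 10 nM LPA. Human LPA1-overexpressing CHO cells were calcium-dye loaded at 37 °C, then given test compound (0.08 nM–5 μM, 0.5% DMSO, HEPES-buffered HBSS with 0.1% fatty-acid-free BSA) for 20 min at room temperature before agonist.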
As usually defined, the IC50 is the midpoint of a concentration-inhibition curve. Consider `CSc1ccnc(OCc2c(-c3ccc(O[C@H]4CCC[C@H](C(=O)O)C4)c(C)n3)nnn2C)n1` [Example 367], for which the IC50 was found to be 0.0079 µM.

Consider `Cc1nc(-c2nnn(C)c2CNc2nccc(OCC(C)F)n2)ccc1O[C@H]1CCC[C@H](C(=O)O)C1` (some centres unmarked) [Example 69], for which the IC50 was found to be 0.054 µM. Consider `Cc1cc(-c2ccccc2C#N)nc(NCc2c(-c3ccc(O[C@H]4CCC[C@H](C(=O)O)C4)c(C)n3)nnn2C)n1` [Example 145], for which the IC50 is 0.058 µM. Regarding `Cc1nc(-c2nnn(C)c2COc2nccc(-c3ccccn3)n2)ccc1O[C@H]1CCC[C@H](C(=O)O)C1` [Example 317], the IC50 came out at 0.072 µM. Turning to `Cc1nc(-c2nnn(C)c2COc2nccc(OC(C)C)n2)ccc1O[C@H]1CCC[C@H](C(=O)O)C1` (single isomer, unassigned) [Example 250], the IC50 worked out at 0.041 µM.

For the compound `Cc1nc(-c2nnn(C)c2CNc2cc(OC(F)(F)F)ccn2)ccc1O[C@@H]1CCC[C@@H](C(=O)O)C1` [Example 75], the IC50 turned out to be 0.413 µM. Turning to `Cc1nc(-c2nnn(C)c2CNc2nccc(OCC3(C)COC3)n2)ccc1O[C@H]1CCC[C@H](C(=O)O)C1` [Example 74], the IC50 was determined as 0.13 µM. As for `Cc1nc(-c2nnn(C)c2CNc2nccc(-c3ccccc3F)n2)ccc1O[C@H]1CCC[C@H](C(=O)O)C1` [Example 20], the IC50 was 0.016 µM. The figure for `COc1ccnc(NCc2c(-c3ccc(O[C@H]4CCC[C@H](C(=O)O)C4)c(C)n3)nnn2C)n1` [Example 12] is 0.056 µM; for `COc1cncc(OCc2c(-c3ccc(O[C@H]4CCC[C@H](C(=O)O)C4)c(C)n3)nnn2C)n1` [Example 307] it is 2.99 µM.

As for `Cn1nnc(-c2ccc(O[C@H]3CCC[C@H](C(=O)O)C3)cn2)c1CNc1nccc(-c2ccccn2)n1` [Example 29], the IC50 is 0.039 µM. The figure for `CCCOc1ccnc(NCc2c(-c3ccc(O[C@H]4CCC[C@H](C(=O)O)C4)c(C#N)n3)nnn2C)n1` [Example 408] is 0.022 µM. For the compound `CCOc1cccc(Nc2c(-c3ccc(O[C@H]4CCC[C@H](C(=O)O)C4)cn3)nnn2C)n1` [Example 248, (1S,3S)-3-((6-(5-((6-ethoxypyridin-2-yl)amino)-1-methyl-1H-1,2,3-triazol-4-yl)pyridin-3-yl)oxy)cyclohexane-1-carboxylic acid], the IC50 is 0.111 µM.

Consider `Cc1nc(-c2nnn(C)c2CNc2ccnc(OC(C)C)n2)ccc1O[C@H]1CCC[C@H](C(=O)O)C1` [Example 25], for which the IC50 turned out to be 0.145 µM.

For the compound `Cn1nnc(-c2cnc(O[C@H]3CCC[C@H](C(=O)O)C3)cn2)c1CNc1nccc(C(C)(C)C)n1` [Example 5, (1S,3S)-3-((5-(5-(((4-(tert-butyl)pyrimidin-2-yl)amino)methyl)-1-methyl-1H-1,2,3-triazol-4-yl)pyrazin-2-yl)oxy)cyclohexane-1-carboxylic acid], the IC50 is 0.361 µM. As to `Cc1nc(-c2nnn(C)c2CNc2nccc(C3CC3C)n2)ccc1O[C@H]1CCC[C@H](C(=O)O)C1` (some centres unmarked) [Example 154], the IC50 turned out to be 0.043 µM.

For `Cc1nc(-c2nnn(C)c2Nc2nccc(OC3CC3)n2)ccc1O[C@H]1CCC[C@H](C(=O)O)C1` [Example 227, (1S,3S)-3-((6-(5-((4-cyclopropoxypyrimidin-2-yl)amino)-1-methyl-1H-1,2,3-triazol-4-yl)-2-methylpyridin-3-yl)oxy)cyclohexane-1-carboxylic acid], the IC50 came to 0.215 µM. On to `Cc1nc(NCc2c(-c3ccc(O[C@H]4CCC[C@H](C(=O)O)C4)c(C)n3)nnn2C)nc(C2CC2)n1` [Example 188, (1S,3S)-3-((6-(5-(((4-Cyclopropyl-6-methyl-1,3,5-triazin-2-yl)amino)methyl)-1-methyl-1H-1,2,3-triazol-4-yl)-2-methylpyridin-3-yl)oxy)cyclohexane-1-carboxylic acid, bis TFA Salt], for which the IC50 was 0.138 µM.

`Cc1nc(-c2nnn(C)c2CNc2nccc(C3CCC3)n2)ccc1O[C@H]1CCC[C@H](C(=O)O)C1` [Example 10]: the IC50 turned out to be 0.011 µM. The result for `CCCOc1nc(NCc2c(-c3ccc(O[C@H]4CCC[C@H](C(=O)O)C4)c(C)n3)nnn2C)nc(OC)n1` [Example 177] reads 0.25 µM; that for `Cc1nc(-c2nnn(C)c2COc2nccc(N3CCC3)n2)ccc1O[C@H]1CCC[C@H](C(=O)O)C1` [Example 349], 1.22 µM. As for `CCCCc1ncnc(NCc2c(-c3ccc(O[C@H]4CCC[C@H](C(=O)O)C4)cn3)nnn2C)n1` [Example 222, (1S,3S)-3-((6-(5-(((4-butyl-1,3,5-triazin-2-yl)amino)methyl)-1-methyl-1H-1,2,3-triazol-4-yl)pyridin-3-yl)oxy)cyclohexane-1-carboxylic acid], the IC50 was found to be 0.068 µM. For `Cc1nc(-c2nnn(C)c2CNc2ncc(F)c(NCC(C)C)n2)ccc1O[C@H]1CCC[C@H](C(=O)O)C1` [Example 60], the IC50 was found to be 0.034 µM. For `[2H]C([2H])([2H])C([2H])([2H])Oc1ccnc(NCc2c(-c3ccc(O[C@H]4CCC[C@H](C(=O)O)C4)c(C)n3)nnn2C)n1` [Example 71], the IC50 stood at 0.013 µM. Turning to `Cc1nc(-c2nnn(C)c2CNc2cc(C(C)C)cnn2)ccc1O[C@H]1CCC[C@H](C(=O)O)C1` [Example 217, (1S,3S)-3-((6-(5-(((5-Isopropyl-pyridazin-3-yl)amino)methyl)-1-methyl-1H-1,2,3-triazol-4-yl)-2-methylpyridin-3-yl)oxy)cyclohexane-1-carboxylic acid], the IC50 stood at 0.097 µM.

As for `Cc1nc(-c2nnn(C)c2COc2nccc(C(F)F)n2)ccc1O[C@H]1CCC[C@H](C(=O)O)C1` [Example 310], the IC50 came out at 0.017 µM.

On to `Cc1nc(-c2nnn(C)c2CNc2ccnc(OC(C)C(F)(F)F)n2)ccc1O[C@H]1CCC[C@H](C(=O)O)C1` (some centres unmarked) [Example 98], for which the IC50 amounted to 0.099 µM. With `Cc1nc(-c2nnn(C)c2COc2nccc(OC(C)C)n2)ccc1O[C@H]1CCC[C@@H](C(=O)O)C1` (single isomer, unassigned) [Example 249], the half-maximal inhibitory concentration (IC50) was determined as 0.067 µM. For `CCCNc1nc(NCc2c(-c3ccc(O[C@H]4CCC[C@H](C(=O)O)C4)c(C)n3)nnn2C)ncc1F` [Example 64], the IC50 was 0.046 µM. The figure for `Cc1nc(-c2nnn(C)c2COc2cc(OCCOC(C)C)ncn2)ccc1O[C@H]1CCC[C@H](C(=O)O)C1` [Example 361] is 0.523 µM. In the case of `Cc1nc(-c2nnn(C)c2CNc2cccc(C3CC3)n2)ccc1O[C@H]1CCC[C@H](C(=O)O)C1` [Example 399], the IC50 amounted to 0.531 µM. As to `Cc1nc(-c2nnn(C)c2CNc2nncc(C(C)(C)C)n2)ccc1O[C@H]1CCC[C@H](C(=O)O)C1` [Example 178], the IC50 turned out to be 0.498 µM. As to `[2H]C([2H])([2H])Oc1cc(OCc2c(-c3ccc(O[C@H]4CCC[C@H](C(=O)O)C4)c(C)n3)nnn2C)ncn1` [Example 297], the 50% inhibitory concentration (IC50) came out at 0.016 µM.

As for `Cc1nc(-c2nnn(C)c2COc2cc(C3CC3)ccn2)ccc1O[C@H]1CCC[C@H](C(=O)O)C1` [Example 283], the IC50 is 0.0088 µM. As for `CCCOc1ccnc(NCc2c(-c3ccc(O[C@H]4CCC[C@H](C(=O)O)C4)c(CC)n3)nnn2C)n1` [Example 392], the IC50 is 0.015 µM. As to `CCCCc1nc(C)nc(NCc2c(-c3ccc(O[C@H]4CCC[C@H](C(=O)O)C4)c(C)n3)nnn2C)n1` [Example 209, (1S,3S)-3-((6-(5-(((4-Butyl-6-methyl-1,3,5-triazin-2-yl)amino)methyl)-1-methyl-1H-1,2,3-triazol-4-yl)-2-methylpyridin-3-yl)oxy)cyclohexane-1-carboxylic acid], the IC50 was 0.062 µM. The figure for `Cc1nc(-c2nnn(C)c2Cc2cccc(-c3ccccc3)n2)ccc1O[C@H]1CCC[C@H](C(=O)O)C1` [Example 376] is 0.11 µM. With `Cc1nc(-c2nnn(C)c2CNc2ncnc(C3CC3)n2)ccc1O[C@H]1CCC[C@H](C(=O)O)C1` [Example 187, (1S,3S)-3-((6-(5-(((4-Cyclopropyl-1,3,5-triazin-2-yl)amino)methyl)-1-methyl-1H-1,2,3-triazol-4-yl)-2-methylpyridin-3-yl)oxy)cyclohexane-1-carboxylic acid, bis TFA Salt], the IC50 was 0.048 µM. Take `Cc1nc(-c2nnn(C)c2COc2cc(Cl)ncn2)ccc1O[C@H]1CCC[C@H](C(=O)O)C1` [Example 304]: the IC50 was determined as 0.066 µM. As to `COc1ccnc(OCc2c(-c3ccc(O[C@H]4CCC[C@H](C(=O)O)C4)c(C)n3)nnn2C)n1` [Example 346], the IC50 was 0.077 µM.

On to `CCc1nc(-c2nnn(C)c2CNc2nccc(C(C)(C)C)n2)ccc1O[C@H]1CCC[C@H](C(=O)O)C1` [Example 385], for which the IC50 is 0.041 µM. For the compound `Cc1nc(-c2nnn(C)c2COc2nccc(C(F)(F)F)n2)ccc1O[C@H]1CCC[C@H](C(=O)O)C1` [Example 305], the IC50 worked out at 0.011 µM. For the compound `Cc1nc(-c2nnn(C)c2CNc2ncccc2OC(F)(F)F)ccc1O[C@H]1CCC[C@H](C(=O)O)C1` [Example 119], the IC50 was 0.793 µM. As to `Cc1nc(-c2nnn(C)c2CNc2nccc(NCCc3ccc(F)cc3)n2)ccc1O[C@H]1CCC[C@H](C(=O)O)C1` [Example 62], the IC50 was found to be 0.063 µM. The result for `COCCOc1ccnc(NCc2c(-c3ccc(O[C@H]4CCC[C@H](C(=O)O)C4)c(C)n3)nnn2C)n1` [Example 82] reads 0.122 µM; that for `Cc1nc(-c2nnn(C)c2COc2nccc(OC3CC3)n2)ccc1O[C@H]1CCCC(C(=O)O)C1` (mixture of isomers) [Example 251, (3S)-3-((6-(5-(((4-cyclopropoxypyrimidin-2-yl)oxy)methyl)-1-methyl-1H-1,2,3-triazol-4-yl)-2-methylpyridin-3-yl)oxy)cyclohexane-1-carboxylic acid], 0.041 µM; that for `Cc1nc(-c2nnn(C)c2COc2cc(-n3cncn3)ncn2)ccc1O[C@H]1CCC[C@H](C(=O)O)C1` [Example 357], 0.12 µM.
